In patent US20220017623A1, “TREATMENT OF CANCER USING A CEA CD3 BISPECIFIC ANTIBODY AND A WNT SIGNALING INHIBITOR” (Hoffmann-La Roche Inc., priority 2019, published 2022):

Experiments:
[1] = tested on: patient derived colorectal cancer organoids (PDOs); assay: allogeneic CD8 T cell co-culture assay with patient derived colorectal cancer organoids, GFP confluence growth assessment; type: cell-based, human; conditions: CEAhi PDO CRC-01; E:T 2:1; 20 nM
Procedure: In order to assess the sensitivity of patient-derived colorectal cancer organoids (PDOs) to cibisatamab immunotherapy, eight patient derived colorectal cancer organoid lines with various cell surface CEA expression levels were generated and treated with cibisatamab (20 nM) or an untargeted control antibody (20 nM) during 10 days of co-culture with allogeneic CD8 T cells. CD8 T cells were isolated from allogeneic healthy donor peripheral blood mononuclear cells (PBMCs) by magnetic bead sorting and expanded in vitro with IL2 and CD3/CD28 beads for 7-14 days. GFP-tagged CRC PDO cells were then seeded in 96 well plates, T cells were added the following day and the co-cultures were imaged every 2-3 days on an automated 96 well plate fluorescence microscope. […] Co-culture with CD8 T cells without any antibody was included as a further control to enable the identification of alloreactive donor T cells. […]
PDOs were harvested with TrypLE Express and neutralised with DMEM/F12 Ham medium (Sigma Aldrich) with 10% FBS. Cells were filtered through a 70 μm filter, counted and resuspended in phenol-red free RPMI medium (Thermo Fisher) supplemented with 10% FBS (Biosera), 1× Glutamax and 100 units penicillin-streptomycin. […]
The GFP confluence was quantified every 48h-72h over a 10-day period using the GFP confluence application on the Celigo Imaging Cytometer (Nexcelom Bioscience). […]

[2] = tested on: cell surface CEA expression of colorectal cancer organoid lines; assay: Wnt/β-catenin pathway inhibition assay: cell surface CEA expression of PDOs by flow cytometry; type: cell-based, human; conditions: PDOs with mixed CEA expression; 10 μM for 3 days; FACS
Procedure: Two PDO lines with mixed CEA expression were treated with an inhibitor of WNT signalling: the tankyrase inhibitor compound 21 which inhibits the downstream WNT/β-catenin pathway by stabilizing the β-catenin destruction complex (Elliott et al., Med Chem Comm. 2015; 6(9):1687-92; Mariotti et al., Br J Pharmacol. 2017; 174(24):4611-36).
Cell lines were harvested using enzyme-free Cell Dissociation Buffer (Thermo Fisher) and PDOs with TrypLE Express (Gibco). 2×10^5 cells were stained with 20 nM of the human anti-human CEA antibody CH1A1A (Roche) and 25 ug/ml of the R-Phycoerythrin conjugated secondary antibody AffiniPure F(ab′)2 Fragment Goat Anti-Human IgG, Fcγ Fragment Specific (Stratech). DRAQ7 (Biostatus) staining was included for dead cell exclusion. CEA expression was analysed on a Sony SH800 flow cytometer. Gate boundaries were set at the trough between high and low CEA populations in PDOs with mixed CEA expression and identical gates were used across all samples. The percentage of CEAhi and CEAlo populations and mean fluorescence intensities (MFI) were calculated for each PDO.
10^5 PDO cells/well were seeded in 12 well plates and allowed to attach overnight. […] Cells were harvested using TrypLE Express, stained for CEA with the CH1A1A primary antibody and the R-Phycoerythrin conjugated secondary antibody and analyzed by FACS as described above.

Row | Compound | growth suppression activity of T cells in the presence of antibody [1] | effect on CEA expression and CEAhi subpopulation [2]
1 | DP47-TCB: untargeted antibody used as a negative control [reference compound] | no activity | 
2 | Cc1cc(-c2ncc(CC(=O)Nc3ccc(-c4cnccn4)cn3)cc2C)ccn1 [LGK-974] |  | increase in CEA expression and the CEAhi subpopulation
